According to patent US8546611B2 (priority 2008, dated 2013):

Columns and labels:
[1] = test system: erythroid cells isolated from the bone marrow of gamma-irradiated laboratory mice males; test: Radioprotective properties (micronucleus test after gamma irradiation)
Wistar rat males = test system: Wistar rat males
Procedure: Examples, illustrating the method invented, are presented below. […] SA is tested on rats endured an immobilization stress; the parameter tested is lymphocytic composition of blood, which is determined before and after stress in a blood smear taken from the caudal vein. […] A detailed description of the testing technique is given in Example 13.
The animals were fixed while lying flat on their back, with their legs secured. […] Blood was taken from the caudal vein: 10 μl for counting blood corpuscles and 20 μl for preparing a smear with its subsequent staining by Romanovsky-Giemsa).
First group: 10 min prior immobilization, the animals were injected (perorally, with the help of a stomach pump) with 1.5 ml of 1% starch solution. […] Blood was taken from the caudal vein at the moment of immobilization and 6 hours later, and stained blood smears were prepared to calculate the leukogram.

[2] = compared with “natural” SA
[3] = test system: erythroid cells isolated from the bone marrow of laboratory mice males; conditions: feed with succinic acid 20 mg/kg body wt., not irradiated, norm 5.0±1.0
Procedure: The test for genotoxicity was performed on young laboratory mice males (18-20 g; 6 animals in each group). […] The control animals were given water.

[4] = test system: patients with cardiac insufficiency
Procedure: The test for cardiotonic activity of product samples was performed by measuring the dynamics of alteration of the functional class of cardiac failure. The functional class can be determined quite accurately by analyzing the everyday life activities according to a specific activity scale. The authors of this technique suppose that the criteria developed by NYHA (New York Heart Association) cannot provide accurate determination of functional class, since widely used terms, such as “everyday physical activity”, “sub-everyday activity” are not specific. On the basis of multiple tests, in which patients exercised on a treadmill, the authors calculated a scale of metabolic expenses for each kind of life activity (see Goldman L., Hashimoto B., Cook F. et al., Comparative reproducibility and validity of systems for assessing cardiovascular functional class: advantages of a new specific activity scale (1981) Circulation 64 (6):1227-34). This inquiry is designed to be used by medical personnel, interviewing a patient. After calculating the sum of possible energy expenses, the functional class of the patient is determined according to the summary criteria of the specific activity scale (Table 6).
In the tests, the patient groups were formed so that the people of the same functional class were equally distributed among different groups. Severe patients (of IV functional class; those having oncological diseases or suffered myocardial infarction/stroke to the brain 60 days or less before) were not admitted to the tests. The distribution of patients among groups was governed by a random number generator. The tests were carried out by the following protocol. Each patient took 100 mg of the preparation twice per day (in the morning and after lunch) during 3 months—against the background of a standard therapy administered by a physician. […] All the samples and placebo were encoded before sending into the clinic, so none of those involved into the tests (patients, physicians, medical personnel and the manager of tests) was aware of the nature of samples.
The functional class of patients was determined several times: at the beginning of tests (before the formation of test groups) and after 30, 60 and 90 days of treatment with the test samples. The estimation was performed on the basis of the activity scale (Table 7).

white rat females = conditions: in vivo
[5] = 6 h after immobilization, 1.5 ml of 1% succinic acid perorally 10 min prior, listed as Ex. 2
[6] = at the moment of immobilization, 1.5 ml of 1% succinic acid perorally 10 min prior, listed as Ex. 2
[7] = 100 mg twice per day with standard therapy, after 30 days
[8] = 100 mg twice per day with standard therapy, after 60 days
[9] = 100 mg twice per day with standard therapy, after 90 days
[10] = 100 mg twice per day, 3 months, with standard therapy, before treatment

Structure (SMILES): O=C(O)CCC(=O)O [Example 2, succinic acid, reference compound]
- radioprotective effect, conclusion in words ([1]; gamma rays 1.3 Gy, 20 mg/kg body wt., 48 h, 20 mg/kg): no evident radioprotective effect
- Number of micronuclei per 2000 cells (radioprotective properties) ([1]; mice irradiated with gamma rays 1.3 Gy, then fed 48 h succinic acid 20 mg/kg body wt., critical value 16±2): 22.5 ± 1.0
- adaptogenic properties, conclusion in words (Wistar rat males; 6-hour immobilization stress, Wistar rats): slight adaptogenic properties
- Eosinophils, 6 h after (Wistar rat males; [5]): 0%
- Lymphocytes, 6 h after (Wistar rat males; [5]): 70 ± 5%
- Number of leukocytes in 1 μl of blood, 6 h after (Wistar rat males; [5]): 7700
- Segmentated cells, 6 h after (Wistar rat males; [5]): 30 ± 3%
- Eosinophils, before (Wistar rat males; [6]): 2 ± 2%
- Lymphocytes, before (Wistar rat males; [6]): 76 ± 4%
- Number of leukocytes in 1 μl of blood, before (Wistar rat males; [6]): 5700
- Segmentated cells, before (Wistar rat males; [6]): 21 ± 4%
- biological activity, overall conclusion in words [2]: do not possess high biological activity
- Number of micronuclei per 2000 cells (genotoxicity) [3]: 5.5 ± 1.0
- patients of functional class I, day 30 [4, 7]: 8
- patients of functional class II, day 30 [4, 7]: 7
- patients of functional class III, day 30 [4, 7]: 5
- patients of functional class IV, day 30 [4, 7]: 0
- patients of functional class I, day 60 [4, 8]: 8
- patients of functional class II, day 60 [4, 8]: 8
- patients of functional class III, day 60 [4, 8]: 4
- patients of functional class IV, day 60 [4, 8]: 0
- patients of functional class I, day 90 [4, 9]: 8
- patients of functional class II, day 90 [4, 9]: 8
- patients of functional class III, day 90 [4, 9]: 4
- patients of functional class IV, day 90 [4, 9]: 0
- cardiotonic properties / dynamics of functional class, conclusion in words ([4]; 100 mg twice per day, 3 months): slight positive dynamics
- patients of functional class I, day 0 [4, 10]: 8
- patients of functional class II, day 0 [4, 10]: 7
- patients of functional class III, day 0 [4, 10]: 5
- patients of functional class IV, day 0 [4, 10]: 0
- Total died (white rat females; female, 5000 mg/kg, 14 days): 0
- animals died, extra test with doubled dose (white rat females; 10000 mg/kg): Not a single animal died
